From patent US11192880B2, “Quinolone compounds as inhibitors of the BCL6 BTB domain protein-protein interaction and/or as BCL6 degraders” (Ontario Institute for Cancer Research (OICR), priority 2017, dated 2021)

Key:
[1] = Liver microsomal metabolic stability, mouse; assay type: in vitro ADME; conditions: % remaining after 60 minutes, 1 μM compound, 0.5 mg/mL protein
Method: (§1) (f) Microsomal Stability Assays
(§2) Liver Microsomal Metabolic Stability
(§3) Working stocks were initially diluted to a concentration of 40.0 μM in 0.1 M potassium phosphate buffer (pH 7.4) before addition to the reaction vials. CD-1 mouse (male) or pooled human liver microsomes (Corning Gentest) were utilized at a final concentration of 0.5 mg/mL (protein). Duplicate wells were used for each time point (0 and 60 minutes). Reactions were carried out at 37° C. in an orbital shaker at 175 rpm, and the final DMSO concentration was kept constant at 0.1%. The final volume for each reaction was 100 μL, which includes the addition of an NADPH-Regeneration Solution (NRS) mix. This NRS mix is comprised of glucose 6-phosphate dehydrogenase, NADP+, MgCl2, and glucose 6-phosphate. Upon completion of the 60 minute time point, reactions were terminated by the addition of 2-volumes (200 μL) of ice-cold, acetonitrile containing 0.5% formic acid and internal standard. Samples were then centrifuged at 4,000 rpm for 10 minutes to remove debris and precipitated protein. Approximately 150 μL of supernatant was subsequently transferred to a new 96 well microplate for LC/MS analysis:
(§4) Narrow-window mass extraction LC-MS analysis was performed for all samples in this study using a Waters Xevo quadrupole time-of-flight (QTof) mass spectrometer to determine relative peak areas of test compounds. The percent remaining values are calculated using the following equations: % remaining=(A)/A0×100
(§5) A is area response after incubation
(§6) A0 is area response at initial time point

[2] = reported; limits its use in animal studies; cited from earlier work
[3] = Liver microsomal metabolic stability, human; assay type: in vitro ADME; conditions: % remaining after 60 minutes, 1 μM compound, 0.5 mg/mL protein
Method: as §1, §2, §3, §4, §5, §6

[4] = molecular target: BCL6 BTB domain (Homo sapiens (Human), UniProt P41182); assay: Surface plasmon resonance (SPR) assay; assay type: binding; conditions: single cycle kinetic analysis, Biacore T200
Method: (b) Surface Plasmon Resonance (SPR) Assay
SPR studies were performed using a Biacore™ T200 instrument (GE Health Sciences Inc.). The BCL6 BTB protein used in the FP assay was biotinylated using the site specific biotinylating enzyme BirA, and then cleaved with TEV protease to produce the BCL6 BTB domain (biotin-thrombin-BCL6 amino acids 1-129; 17 kd) that was use in SPR. This protein was stably captured (1000 RU) to streptavidin coupled SA chips (BR-1005-31, GE Health Sciences Inc.) according to the manufacture's protocol. Compounds were dissolved in 100% DMSO at 10 mM and 2-fold serial dilutions were done in 100% DMSO. For SPR analysis the serially titrated compounds were diluted 1/20 into buffer (10 mM HEPES pH7.4, 150 mM NaCl, 0.05% Tween-20, 3 mM EDTA) giving a final concentration of 5% DMSO. The Biacore flow rate was set at 100 ul/min. For KD determinations, single cycle kinetic analysis was performed with an on time of 60 seconds, and an off time of 300 seconds. Curve fitting and KD calculations were done with the Biacore T200 Evaluation software (GE Health Sciences Inc).

[5] = system: BCL6 reporter construct in SuDHL4-3xBCL6-TK-Luc cells; assay: Cell-based BCL6 reporter luciferase assay; conditions: 48 h, two days
Method: (c) Cell-Based Luciferase Assay:
A BCL6 reporter construct containing three copies of the consensus BCL6 binding site, the TK promoter, and the firefly luciferase gene was stably expressed in SuDHL4 cells after lentivirus infection and selection with Blasticidin. SuDHL4-3xBCL6-TK-Luc cells were seeded into a Viewplate 384-well assay dish at 15,000 cells/well in 25 ul medium (Alpha-MEM high glucose containing 10% FBS, 25 mM HEPES, […] GlutaMAX, 100 ug/ml Normocin, and […] Gentamycin, Invitrogen). A HP D300 digital dispenser was used to dose cells with DMSO or test compounds across a 10-point range of concentrations (high dose of 10 uM), and cultures were grown in a humidified 5% CO2 incubator at 37° C. After two days, plates were removed from incubator and equilibrated to room temperature. An equal volume of neolite reporter gene assay reagent was added to each well, and samples were processed according to manufacturer's instructions (Perkin Elmer). Luminescent signal was measured using an Envision™ plate reader equipped with a US-Luminescence detector.

[6] = molecular target: BTB domain of BCL6 / SMRT BBD peptide (Homo sapiens (Human), UniProt P41182); assay: BCL6-BTB-SMRT peptide inhibition fluorescence polarization (FP) screen; assay type: binding; conditions: 1.25 uM BCL6-BTB, 20 nM Bodipy-TMR SMRT peptide probe; lower limit of assay 1 uM
Method: (a) BCL6-BTB-SMRT Peptide Inhibition Fluorescence Polarization (FP) Screen
Compounds were dissolved in 100% DMSO at 10 mM, assayed fresh, and then stored at −20° C. for repeat studies and future work. The reaction mixture consists of 1.25 uM of the 25 kd BCL6-BTB domain (Thioredoxin-His6-STag-TEV-biotinylation-thrombin-BCL6 amino acids 1-129) plus 20 nM of the peptide probe Ac-GSLVATVKEAGRSIHEIPA (SEQ ID NO:1) with 16 amino-acids (16-mer peptide) from the SMRT BBD (1414-1429) with a Bodipy-TMR fluorescent label on the lysine. […] 20 ul of this assay mixture was added to each well of the 384 well plates with the exception of the control wells that contained no protein (for setting the minimum FP value). Compounds were directly sprayed using an HP D300 Digital Dispenser from 10 mM DMSO stocks onto black 384 well plates (greiner bio-one #781900) in a concentration range from 1 uM to 500 uM (10 points in duplicate). The assay was equilibrated for 1 hour prior to reading the FP values (Ex 540 nm/Em 580 nm) with a Perkin Elmer Envision plate reader. The results were curve fitted and IC50 values were calculated using the BioAssay software from CambridgeSoft.

[7] = system: Karpas422 cells; assay: Tumor cell growth inhibition assay; assay type: cell-based; conditions: Homo sapiens, KARPAS-422, 144 h, six days, ATPlite, read-out: GI Karpas EC50
Method: (d) Tumor Cell Growth Inhibition Assay:
Karpas422 cells were seeded into a 96-well plate at 2,000 cells/well in 150 ul medium (Alpha-MEM containing 10% FBS, […] Normocin, and […] Gentamycin, Invitrogen). A HP D300 digital dispenser was used to dose cells with DMSO or test compounds across a 10-point range of concentrations (high dose of 5 uM), and cultures were grown in a humidified 5% CO2 incubator at 37° C. After six days, plates were removed from incubator and equilibrated to room temperature. An equal volume of ATPlite assay reagent was added to each well, and samples were processed according to manufacturer's instructions (Perkin Elmer). Luminescent signal was measured using an Envision plate reader equipped with a US-Luminescence detector.

For `CNC(=O)COc1cc2cc(Nc3nc(N4C[C@H](C)C[C@H](C)C4)ncc3Cl)ccc2n(C)c1=O` [BI-3802, reference compound], the “Mouse Liver Microsomes (MLM, % @ 1 h)” value [1] is listed as 13%, the bioavailability [2] is listed as “poor bioavailability” and the “Human Liver Microsomes (HLM, % @ 1 h)” value [3] is listed as 25%.

For `CNC(=O)COc1cc2cc(Nc3nc(N4C[C@@H](C)N[C@@H](C)C4)ncc3Cl)ccc2n(C)c1=O` [Compound X-1, 2-((6-((5-chloro-2-((3S,5R)-3,5-dimethylpiperazin-1-yl)pyrimidin-4-yl)amino)-1-methyl-2-oxo-1,2-dihydroquinolin-3-yl)oxy)-N-methylacetamide], the “Mouse Liver Microsomes (MLM, % @ 1 h)” value [1] was 15%, the Kd [4] was 5.73 nM and the “Human Liver Microsomes (HLM, % @ 1 h)” value [3] was 34%. It also gave an IC50 [5] of 433 nM, an IC50 [6] of 1600 nM and an EC50 [7] of 92.6 nM.

For `CNC(=O)COc1cc2cc(Nc3nc(N4C[C@@H](C)O[C@@H](C)C4)ncc3Cl)ccc2n(C)c1=O` [Compound X-2], the “Mouse Liver Microsomes (MLM, % @ 1 h)” value [1] was 70%, the Kd [4] was 10.3 nM and the “Human Liver Microsomes (HLM, % @ 1 h)” value [3] was 74%. For the same compound, the IC50 [5] was 91.9 nM, the IC50 [6] was 1200 nM and the EC50 [7] was 30.6 nM.

For `CNC(=O)COc1cc2cc(Nc3nc(N4CC5CCC(C4)C5(F)F)ncc3Cl)ccc2n(C)c1=O` [Compound X-3], the “Mouse Liver Microsomes (MLM, % @ 1 h)” value [1] was 0.5%, the Kd [4] was 15.7 nM and the “Human Liver Microsomes (HLM, % @ 1 h)” value [3] was 44%. For the same compound, the IC50 [5] was 643 nM, the IC50 [6] was 1800 nM and the EC50 [7] was 37.8 nM.

In the case of `CNC(=O)COc1cc2cc(Nc3nc(N4C[C@@H](C)C(F)(F)[C@@H](C)C4)ncc3Cl)ccc2n(C)c1=O` [Ia], the “Mouse Liver Microsomes (MLM, % @ 1 h)” value [1] is reported as 61%, the Kd [4] is reported as 5.33 nM and the “Human Liver Microsomes (HLM, % @ 1 h)” value [3] is reported as 77%. It also gave an IC50 [5] of 6.84 nM, an IC50 [6] of 900 nM and an EC50 [7] of 3.36 nM.
